# US20230365563A1, “QUINAZOLINE COMPOUND AND APPLICATION THEREOF” (SHANGHAI PHARMACEUTICALS HOLDING CO., LTD., priority 2020, published 2023)
# Structures can show the parent of a compound that is named as a salt.
# Target: T1, KRAS-G12D and SOS1 (Homo sapiens, UniProt P01116, G12D)
# T1 construct: purchased
# Assay: Inhibition of KRAS-G12D/SOS1 binding (Cisbio binding kit, 665/615 ratio), Effect Embodiment A
# Details: read-out: GTP-KRAS-G12D:SOS1 IC50
# Procedure, shortened: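 Compounds are tested over eleven threefold dilution steps in duplicate, with final DMSO at 1%.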
# T1 sequence (P01116 1-188 isoform P01116-2 G12D): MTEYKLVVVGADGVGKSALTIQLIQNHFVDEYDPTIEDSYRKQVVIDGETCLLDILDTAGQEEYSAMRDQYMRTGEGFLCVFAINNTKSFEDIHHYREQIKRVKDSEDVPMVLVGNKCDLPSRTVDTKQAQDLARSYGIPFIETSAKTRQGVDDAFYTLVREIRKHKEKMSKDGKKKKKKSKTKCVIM
row,SMILES,IC50 [nM]
1,"N=[S+]1([O-])CC2CCC(C1)N2CCCOc1nc(N2CC3CCC(C2)N3)c2cc(Cl)c(-c3cc(O)cc4ccccc34)c(F)c2n1 (single isomer, unassigned) [Compound 213b, (1R,3R or 3S,5S)-8-(3-((4-((1R,5S)-3,8-diazabicyclo[3.2.1]octan-3-yl)-6-chloro-8-fluoro-7-(3-hydroxynaphthalen-1-yl)quinazolin-2-yl)oxy)propyl)-3-imino-3λ^6-thia-8-azabicyclo[3.2.1]octane 3-oxide formate]",673
2,"CN(C)C1CN(c2nc(NCC(=N)N)c3cc(Cl)c(-c4cc(O)cc5ccccc45)c(F)c3n2)C1 (single isomer, unassigned) [Compound 76, (S or R)-2-((6-chloro-2-(3-(dimethylamino)azetidin-1-yl)-8-fluoro-7-(3-hydroxynaphthalen-1-yl)quinazolin-4-yl)amino)acetimidamide diformate]",8960
3,"CN(CCN)c1nc(N2CC(N(C)C)C2)nc2c(F)c(-c3cc(O)cc4ccccc34)c(Cl)cc12 (single isomer, unassigned) [Compound 15a, (R or S)-4-(4((2-aminoethyl) (methyl)-amino)-6-chloro-2-(3-(dimethylamino)azetidin-1-yl)-8-fluoroquinazolin-7-yl)naphthalen-2-ol]",1350
4,"CN1CCC[C@H]1C1(Oc2nc(N3CC4CCC(C3)N4)c3cc(Cl)c(-c4cc(O)cc5ccccc45)c(F)c3n2)CC1 (single isomer, unassigned) [Compound 189, 4-((R or S)-4-((1R,5S)-3,8-diazabicyclo[3.2.1]octan-3-yl)-6-chloro-8-fluoro-2-(1-((S)-1-methylpyrrolidin-2-yl)cyclopropoxy)quinazolin-7-yl)naphthalen-2-ol diformate]",8320
5,"CN(C)CCCCOc1nc(N2CC3CCC(C2)N3)c2cc(Cl)c(-c3cc(O)cc4ccccc34)c(F)c2n1 (single isomer, unassigned) [Compound 60b, 4-((R or S)-4-((1R,5S)-3,8-diazabicyclo[3.2.1]octan-3-yl)-6-chloro-2-(4-(dimethylamino)butoxy)-8-fluoroquinazolin-7-yl)naphthalen-2-ol]",72400
6,"CN(C)C1CN(c2nc(N3CC4CCC(C3)N4)c3cc(Cl)c(-c4cc(O)cc5cccc(F)c45)c(F)c3n2)C1 (single isomer, unassigned) [Compound 64a, 4-((S or R)-4-((1R,5S)-3,8-diazabicyclo[3.2.1]octan-3-yl)-6-chloro-2-(3-(dimethylamino)azetidin-1-yl)-8-fluoroquinazolin-7-yl)-5-fluoronaphthalen-2-ol]",31700
7,"CN1CCOC[C@H]1COc1nc(N2CC3CCC(C2)N3)c2cc(Cl)c(-c3cc(O)cc4ccccc34)c(F)c2n1 (single isomer, unassigned) [Compound 122, 4-((S or R)-4-((1R,5S)-3,8-diazabicyclo[3.2.1]octan-3-yl)-6-chloro-8-fluoro-2-((S)-4-methylmorpholin-3-yl)methoxy)quinazolin-7-yl)naphthalen-2-ol dihydrochloride]",219
8,"C[C@@H](COc1nc(N2CC3CCC(C2)N3)c2cc(Cl)c(-c3cc(O)cc4ccccc34)c(F)c2n1)CN1CC(C)(C)OC(C)(C)C1 (single isomer, unassigned) [Compound 217, 4-((S or R)-4-((1R,5S)-3,8-diazabicyclo[3.2.1]octan-3-yl)-6-chloro-8-fluoro-2-((R)-2-methyl-3-(2,2,6,6-tetramethylmorpholinyl)propoxy)quinazolin-7-yl)naphthalen-2-ol formate]",191
9,"CN(C)CCCOc1nc(N2C[C@H]3CC[C@@H](C2)N3)c2ccn(-c3cc(O)cc4ccccc34)c(=O)c2n1 [Compound 161, 4-((1R,5S)-3,8-diazabicyclo[3.2.1]octan-3-yl)-2-(3-(dimethylamino)propoxy)-7-(3-hydroxynaphthalen-1-yl)pyrido[3,4-d]pyrimidin-8(7H)-one dihydrochloride]",> 10000
10,"CN(C)C1CN(c2nc(N3CCC4(CCCN4)CC3)c3cc(Cl)c(-c4cc(O)cc5ccccc45)c(F)c3n2)C1 (single isomer, unassigned) [Compound 12a, (R or S)-4-(6-chloro-2-(3-(dimethylamino)azetidin-1-yl)-8-fluoro-4-(1,8-diazaspiro[4.5]decan-8-yl)quinazolin-7-yl)naphthalen-2-ol]",7120
11,"CN(C)C1CN(c2nc(N3CC(N(C)C)C3)c3cc(Cl)c(-c4cc(O)cc5ccccc45)c(F)c3n2)C1 (single isomer, unassigned) [Compound 9b, (S or R)-4-(6-chloro-2,4-bis(3-(dimethylamino)azetidin-1-yl)-8-fluoro-7-yl)naphthalen-2-ol]",> 200000
12,"O=S1(=O)CC2CCC(C1)N2CCCOc1nc(N2CC3CCC(C2)N3)c2cc(Cl)c(-c3cc(O)cc4ccccc34)c(F)c2n1 (single isomer, unassigned) [Compound 212, 8-(3-((S or R)-4-((1R,5S)-3,8-diazabicyclo[3.2.1]octan-3-yl)-6-chloro-8-fluoro-7-(3-hydroxynaphthalen-1-yl)quinazolin-2-yl)oxy)propyl)-3-thio-8-azabicyclo[3.2.1]octane-3,3-dioxide formate]",556
13,"CN(C)C12CC(c3nc(N4CC5CCC(C4)N5)c4cc(Cl)c(-c5cc(O)cc6ccccc56)c(F)c4n3)(C1)C2 (single isomer, unassigned) [Compound 162a, 4-((S or R)-4-((1R,5S)-3,8-diazabicyclo[3.2.1]octan-3-yl)-6-chloro-2-(3-(dimethylamino)bicyclo[1.1.1]pentan-1-yl)-8-fluoroquinazolin-7-yl)naphthalen-2-ol dihydrochloride]",678
14,"CCc1c(F)ccc2cccc(-c3c(F)cc4c(N5CC6CCC(C5)N6)nc(OC[C@@]56CCCN5C[C@H](F)C6)nc4c3F)c12 (single isomer, unassigned) [Compound 280b, 4-((1R,5S)-3,8-diazacyclo[3.2.1]octan-3-yl)-7-((R or S)-8-ethyl-7-fluoronaphthalen-1-yl)-6,8-difluoro-2-((2R,7aS)-2-fluorotetrahydro-1H-pyrrolidin-7a(5H)-yl)methoxy)quinazoline dihydrochloride]",310
15,"CN1CC(F)(F)C[C@H]1COc1nc(N2CC3CCC(C2)N3)c2cnc(-c3cc(O)cc4ccccc34)c(F)c2n1 [Compound 135, 4-(4-((1R,5S)-3,8-diazabicyclo[3.2.1]octan-3-yl)-2-((S)-4,4-difluoro-1-methylpyrrolidin-2-yl)methoxy)-8-fluoropyridinyl[4,3-d]pyrimidin-7-yl)naphthalen-2-ol formate]",133
16,"N#Cc1cccc2cc(O)cc(-c3c(F)cc4c(N5CC6CCC(C5)N6)nc(OCCCN5C6CCC5COC6)nc4c3F)c12 (single isomer, unassigned) [Compound 278b, 8-((7R or 7S)-2-(3-(3-oxa-8-azabicyclo[3.2.1]octan-8-yl)propoxy)-4-((1R,5S)-3,8-diazabicyclo[3.2.1]octan-3-yl)-6,8-difluoroquinazolin-7-yl)-6-hydroxy-1-naphthonitrile diformate]",2480
17,"CCc1cccc2cc(O)cc(-c3c(F)cc4c(N5CC6CCC(C5)N6)nc(OC[C@@]56CCCN5C[C@H](F)C6)nc4c3F)c12 (single isomer, unassigned) [Compound 285b, (R or S)-4-(4-((1R,5S)-3,8-diazacyclo[3.2.1]octan-3-yl)-6,8-difluoro-2-((2R,7aS)-2-fluorotetrahydro-1H-pyrrolidin-7a(5H-yl)methoxy)quinazolin-7-yl)-5-ethylnaphthalen-2-ol dihydrochloride]",1460
18,"CN(C)C1CN(c2nc(NCCO)c3cc(Cl)c(-c4cc(O)cc5ccccc45)c(F)c3n2)C1 (single isomer, unassigned) [Compound 18b, (S or R)-4-(6-chloro-2-(3-(dimethylamino)azetidin-1-yl)-8-fluoro-4-((2-hydroxyethyl)amino)-quinazolin-7-yl)naphthalen-2-ol]",2360
19,"CN(C)C1CN(c2nc(N3C[C@H]4CC[C@@H]3CN4)c3cc(Cl)c(-c4cc(O)cc5ccccc45)c(F)c3n2)C1 (single isomer, unassigned) [Compound 1a, (R or S)-4-(4-((1R,4R)-2,5-diazabicyclo[2.2.2]octan-2-yl)-6-chloro-2-(3-(dimethylamino)azetidin-1-yl)-8-fluoroquinazolin-7-yl)naphthalen-2-ol]",6440
20,"Oc1cc(-c2c(Cl)cc3c(N4CC5CCC(C4)N5)nc(OCCN4CCOCC4)nc3c2F)c2ccccc2c1 (single isomer, unassigned) [Compound 121, 4-((S or R)-4-((1R,5S)-3,8-diazabicyclo[3.2.1]octan-3-yl)-6-chloro-8-fluoro-2-(2-(morpholinylethoxy)quinazolin-7-yl)naphthalen-2-oldihydrochloride]",147
21,"CN(C)CCCOc1nc2c(c(N3CCNCC3)n1)CCN(c1cc(O)cc3ccccc13)C2 [Compound 73, 4-(2-(3-(Dimethylamino)propoxy)-4-(piperazin-1-yl)-5,8-dihydropyrido[3,4-d]pyrimidin-7(6H)-yl)naphthalen-2-ol]",15700
22,"CN(C)CCCn1c(=O)nc(N2CC3CCC(C2)N3)c2cc(Cl)c(-c3cc(O)cc4ccccc34)c(F)c21 (single isomer, unassigned) [Compound 74a, 4-((1R,5S)-3,8-diazabicyclo[3.2.1]octan-3-yl)-6-chloro-1-(3-(dimethylamino)propyl)-8-fluoro-7-((S or R)-3-hydroxynaphthalen-1-yl)quinazolin-2(1H)-one]",100000
23,"CCc1c(F)ccc2cc(O)cc(-c3c(F)cc4c(N5CC6CCC(C5)N6)nc(OCCCN5C[C@@H](C)O[C@@H](C)C5)nc4c3F)c12 (single isomer, unassigned) [Compound 250b, (R or S)-4-(4-((1R,5S)-3,8-diazacyclo[3.2.1]octan-3-yl)-2-(3-((2R,6S)-2,6-dimethylmorpholinyl)propoxy)-6,8-difluoroquinazolin-7-yl)-5-ethyl-6-fluoronaphthalen-2-ol formate]",1630
